From US20120165553A1, “IMMUNOSTIMULANT” (RIKEN, priority 2010, published 2012) come the findings set out here.

Each structure is given as a SMILES string.

Assay [1] has as its system macrophages. The experiment in a line: cytokine mRNA expression in macrophages stimulated with R848 (real time PCR). The class given is cell-based, mouse. The conditions noted are these: 10 nM BL for 15 minutes, then R848 stimulation, RNA 1 hour later, relative to HPRT mRNA. Here is the method: 3 mL of 3% thioglycolate medium (Difco Laboratories) was intraperitoneally administered to a BALB/c mouse (female, 8 to 12 weeks age), peritoneal cells were collected 3 days later and cultured in RPMI-1640 medium containing 10% fetal bovine serum (Cansera International Inc.), 5×10^−5M β-mercaptoethanol (Wako Pure Chemical Industries, Ltd.), 20 U/mL penicillin (Meiji Seika Kaisha, Limited) and 100 μg/mL streptomycin (Meiji Seika Kaisha, Limited) at 37° C. under the presence of 5% CO2. After culturing 1×10^6/mL of the peritoneal cells for 3 hours in a 6-well plate (2 mL/well), non-adherent cells were removed and adherent cells were tested as the macrophages. The macrophages were cultured for 15 minutes in the presence or absence of 10 nM BL, subsequently stimulated with R848 (InvivoGen) or LPS (Sigma-Aldrich Corporation) 100 ng/mL, and the RNA was collected 1 hour later using Rneasy Mini Kit (QIAGEN K. K.). Using a Primescript RT reagent kit (TAKARA BIO INC.), cDNA was synthesized from […] of the isolated RNA in accordance with the attached protocol and the real time PCR was carried out using Thermal Cycler Dice Real Time System II (TAKARA BIO INC.) to examine the changes of cytokine (IFN-α, IFN-β, IL-12 subunit p35, IL-12 subunit p40, TNF-α) mRNA expression. […]
In general terms: In qPCR the cycle at which signal appears reflects the starting amount.

Assay [2] deals with BALB/c mouse. The assay is described as follows: antigen (ovalbumin) specific antibody (IgG) production in mouse, serum ELISA. The class given is in vivo. The note with it: BL 0.2, 1 and 5 mg/Kg of body weight intraperitoneally every other day; serum 2 weeks later; absorbance at 450 nm; FIG. 2. Here is the method: A mixed solution (0.2 mL) of […] of ovalbumin (Sigma-Aldrich Corporation) and 4 mg of aluminum hydroxide (Thermo Scientific Pierce Protein Research Products) was intraperitoneally administered to a BALB/c mouse (female, 8 to 12 weeks old) and BL dissolved in 0.2 mL PBS (0, 0.2, 1 and 5 mg/Kg of body weight) was intraperitoneally administered every other day. The serum was isolated 2 weeks later and measured for the production of immunoglobulin (IgG) specific to the antigen (ovalbumin) using ELISA. ELISA was carried out using a biotinylated anti-mouse IgG antibody (Southern Biotechnology Associates Inc.) as the secondary antibody, streptavidin-HRP (Prozyme, Inc.) and a TMB Microwell Peroxidase Substrate (Kirkegaard & Perry Laboratories, Inc.) as the colorimetric substrate, and the absorbance at 450 nm was measured.
(In an ELISA, binding on a coated surface is turned into a signal by an enzyme label.)

Assay [3] deals with macrophages. The experiment in a line: cytokine mRNA expression in macrophages stimulated with LPS (real time PCR). Format: cell-based, mouse. The note with it: 10 nM BL for 15 minutes, then LPS stimulation, RNA 1 hour later, relative to HPRT mRNA. Here is the method: 3 mL of 3% thioglycolate medium (Difco Laboratories) was intraperitoneally administered to a BALB/c mouse (female, 8 to 12 weeks age), peritoneal cells were collected 3 days later and cultured in RPMI-1640 medium containing 10% fetal bovine serum (Cansera International Inc.), 5×10^−5M β-mercaptoethanol (Wako Pure Chemical Industries, Ltd.), 20 U/mL penicillin (Meiji Seika Kaisha, Limited) and 100 μg/mL streptomycin (Meiji Seika Kaisha, Limited) at 37° C. under the presence of 5% CO2. After culturing 1×10^6/mL of the peritoneal cells for 3 hours in a 6-well plate (2 mL/well), non-adherent cells were removed and adherent cells were tested as the macrophages. The macrophages were cultured for 15 minutes in the presence or absence of 10 nM BL, subsequently stimulated with R848 (InvivoGen) or LPS (Sigma-Aldrich Corporation) 100 ng/mL, and the RNA was collected 1 hour later using Rneasy Mini Kit (QIAGEN K. K.). Using a Primescript RT reagent kit (TAKARA BIO INC.), cDNA was synthesized from […] of the isolated RNA in accordance with the attached protocol and the real time PCR was carried out using Thermal Cycler Dice Real Time System II (TAKARA BIO INC.) to examine the changes of cytokine (IFN-α, IFN-β, IL-12 subunit p35, IL-12 subunit p40, TNF-α) mRNA expression.
The mRNA amounts are shown for IFN-α in FIG. 3, IFN-β in FIG. 4, IL-12 subunit p35 in FIG. 5, IL-12 subunit p40 in FIG. 6 and TNF-α in FIG. 7. The mRNA amount in each Figure is indicated as the relative amount to the mRNA amount of HPRT, which is the housekeeping gene.

Assay [4] relates to mouse spleen cells (T cells and B cells). The assay is described as follows: spleen cell proliferation caused by antigen stimulation (BrdU incorporation ELISA). The class given is cell-based. The note with it: BL 10 nM; antigen 10 µg/mL of ovalbumin; cultured for 3 days; spleen cells of ovalbumin/aluminum hydroxide immunised BALB/c mouse; FIG. 1. Here is the method:
The effect of BL on the spleen cell proliferation caused by an antigen stimulation was examined.
A mixed solution (0.2 mL) of […] of ovalbumin (Sigma-Aldrich Corporation) and 4 mg of aluminum hydroxide (Thermo Scientific Pierce Protein Research Products) was intraperitoneally administered to a BALB/c mouse (female, 8 to 12 weeks old) and the spleen was collected 2 weeks later. Cells were isolated from the spleen and cultured in RPMI-1640 medium containing 10% fetal bovine serum (Cansera International Inc.), 5×10^−5M β-mercaptoethanol (Wako Pure Chemical Industries, Ltd.), 20 U/mL penicillin (Meiji Seika Kaisha, Limited) and 100 μg/mL streptomycin (Meiji Seika Kaisha, Limited) at 37° C. under the presence of 5% CO2. Cells to which BL (Brassino Co., Ltd.) was added in a concentration of 10 nM and cells to which BL was not added were respectively stimulated by an antigen ([…] of ovalbumin), cultured for 3 days and measured for the incorporated BrdU in the detection of proliferating spleen cells using a cell proliferation ELISA BrdU colorimetric kit (Roche Applied Science).
A general note: Incorporation of labelled thymidine or its analogues reports DNA synthesis.

In the case of `CC(C)[C@H](C)[C@@H](O)[C@H](O)[C@@H](C)[C@H]1CC[C@H]2[C@@H]3COC(=O)[C@H]4C[C@H](O)[C@H](O)C[C@]4(C)[C@H]3CC[C@]12C` [BL, Brassinolide], in assay [1] (FIG. 3), the “IFN-α mRNA expression induction” value is on record as “enhancing”. Further, in assay [1] (FIG. 4), the “IFN-β mRNA expression induction” value was “enhancing”. Also, in assay [2], the “antigen specific antibody (IgG) production induced by ovalbumin and aluminum hydroxide” value is “significantly promoted”. For the same molecule, the “IL-12 p35 mRNA expression induction” value in assay [3] (FIG. 5) is given as “enhancing”. Moreover, the “IL-12 p40 mRNA expression induction” value in assay [3] (FIG. 6) is “enhancing”. In addition, the “TNF-α mRNA expression induction” value in assay [3] (FIG. 7) is “enhancing”. The “spleen cell proliferation induced by the antigen stimulation (incorporated BrdU)” value in assay [4] is recorded as “significantly promoted”.
